Measured values as given in article PMC10930102 (Journal of Enzyme Inhibition and Medicinal Chemistry, 2024).

Columns and labels:
HDAC6 = target: T1, HDAC6 (Homo sapiens, UniProt Q9UBN7); assay: HDAC inhibition assay (fluorogenic peptide, Reaction Biology); type: biochemical; details: tested once, ten-dose starting at 30 µM
T1 construct: purchased Reaction Biology Corporation; host or cells: baculovirus expression system in SF9 cells
T1 sequence (Q9UBN7 1-1215): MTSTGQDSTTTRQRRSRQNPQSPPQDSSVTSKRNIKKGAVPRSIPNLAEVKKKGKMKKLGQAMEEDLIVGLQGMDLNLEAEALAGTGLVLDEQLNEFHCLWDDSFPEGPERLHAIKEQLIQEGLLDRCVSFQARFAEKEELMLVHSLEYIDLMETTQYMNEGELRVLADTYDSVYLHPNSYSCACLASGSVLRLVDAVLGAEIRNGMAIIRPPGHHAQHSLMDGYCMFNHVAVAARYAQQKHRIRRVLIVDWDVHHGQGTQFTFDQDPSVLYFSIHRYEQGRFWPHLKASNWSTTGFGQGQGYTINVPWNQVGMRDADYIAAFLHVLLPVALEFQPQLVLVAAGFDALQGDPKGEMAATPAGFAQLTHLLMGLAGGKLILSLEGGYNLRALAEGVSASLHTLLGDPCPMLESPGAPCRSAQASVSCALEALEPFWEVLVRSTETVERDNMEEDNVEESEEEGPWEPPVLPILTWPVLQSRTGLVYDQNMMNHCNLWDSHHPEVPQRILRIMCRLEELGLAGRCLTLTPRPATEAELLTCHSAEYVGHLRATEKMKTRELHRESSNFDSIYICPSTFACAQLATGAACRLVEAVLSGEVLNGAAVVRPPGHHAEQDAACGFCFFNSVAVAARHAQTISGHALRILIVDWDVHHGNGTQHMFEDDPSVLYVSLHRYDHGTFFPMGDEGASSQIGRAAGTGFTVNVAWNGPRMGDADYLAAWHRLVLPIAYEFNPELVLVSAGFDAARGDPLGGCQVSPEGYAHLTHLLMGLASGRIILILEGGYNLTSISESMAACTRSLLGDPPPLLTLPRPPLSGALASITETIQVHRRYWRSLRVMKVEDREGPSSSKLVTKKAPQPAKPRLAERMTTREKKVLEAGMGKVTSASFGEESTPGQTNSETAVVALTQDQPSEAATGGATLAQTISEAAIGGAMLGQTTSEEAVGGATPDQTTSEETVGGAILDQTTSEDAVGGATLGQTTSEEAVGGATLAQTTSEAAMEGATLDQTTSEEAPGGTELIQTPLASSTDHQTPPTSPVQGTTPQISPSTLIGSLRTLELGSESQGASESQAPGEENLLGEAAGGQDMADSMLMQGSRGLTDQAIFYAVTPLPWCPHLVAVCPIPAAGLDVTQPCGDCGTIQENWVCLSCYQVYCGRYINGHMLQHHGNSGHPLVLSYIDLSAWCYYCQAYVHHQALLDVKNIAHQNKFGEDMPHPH

HDAC11 = target: T2, HDAC11 (Homo sapiens, UniProt Q96DB2); assay: as above; type: biochemical; details: tested once, ten-dose starting at 30 µM
T2 construct: purchased Reaction Biology Corporation; host or cells: baculovirus expression system in SF9 cells
T2 sequence (Q96DB2 1-347): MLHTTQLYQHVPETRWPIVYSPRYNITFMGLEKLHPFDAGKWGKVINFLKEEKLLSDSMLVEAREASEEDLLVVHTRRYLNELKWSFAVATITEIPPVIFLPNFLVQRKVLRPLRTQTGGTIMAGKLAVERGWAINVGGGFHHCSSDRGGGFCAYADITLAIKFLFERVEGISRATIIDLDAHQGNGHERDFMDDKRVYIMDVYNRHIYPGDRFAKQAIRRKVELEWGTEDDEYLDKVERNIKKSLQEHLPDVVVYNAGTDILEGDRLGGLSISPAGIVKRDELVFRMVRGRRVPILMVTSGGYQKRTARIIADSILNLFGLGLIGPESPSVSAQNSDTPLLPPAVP

MCF7 = assay: SRB antiproliferation assay; type: cell-based; details: Homo sapiens, 48 h, read-out: Antiproliferative activity (IC50) MCF7
H2228 = assay: SRB antiproliferation assay; type: cell-based; details: Homo sapiens, NCI-H2228, 48 h, ALK-addicted cells, read-out: Antiproliferative activity (IC50) H2228
VEGFR2 = target: T3, VEGFR2 (Homo sapiens, UniProt P35968); assay: RTK in vitro enzymatic assay; type: biochemical; details: 20 μM ATP
T3 construct: purchased Reaction Biology Corporation
T3 sequence (P35968 20-1356): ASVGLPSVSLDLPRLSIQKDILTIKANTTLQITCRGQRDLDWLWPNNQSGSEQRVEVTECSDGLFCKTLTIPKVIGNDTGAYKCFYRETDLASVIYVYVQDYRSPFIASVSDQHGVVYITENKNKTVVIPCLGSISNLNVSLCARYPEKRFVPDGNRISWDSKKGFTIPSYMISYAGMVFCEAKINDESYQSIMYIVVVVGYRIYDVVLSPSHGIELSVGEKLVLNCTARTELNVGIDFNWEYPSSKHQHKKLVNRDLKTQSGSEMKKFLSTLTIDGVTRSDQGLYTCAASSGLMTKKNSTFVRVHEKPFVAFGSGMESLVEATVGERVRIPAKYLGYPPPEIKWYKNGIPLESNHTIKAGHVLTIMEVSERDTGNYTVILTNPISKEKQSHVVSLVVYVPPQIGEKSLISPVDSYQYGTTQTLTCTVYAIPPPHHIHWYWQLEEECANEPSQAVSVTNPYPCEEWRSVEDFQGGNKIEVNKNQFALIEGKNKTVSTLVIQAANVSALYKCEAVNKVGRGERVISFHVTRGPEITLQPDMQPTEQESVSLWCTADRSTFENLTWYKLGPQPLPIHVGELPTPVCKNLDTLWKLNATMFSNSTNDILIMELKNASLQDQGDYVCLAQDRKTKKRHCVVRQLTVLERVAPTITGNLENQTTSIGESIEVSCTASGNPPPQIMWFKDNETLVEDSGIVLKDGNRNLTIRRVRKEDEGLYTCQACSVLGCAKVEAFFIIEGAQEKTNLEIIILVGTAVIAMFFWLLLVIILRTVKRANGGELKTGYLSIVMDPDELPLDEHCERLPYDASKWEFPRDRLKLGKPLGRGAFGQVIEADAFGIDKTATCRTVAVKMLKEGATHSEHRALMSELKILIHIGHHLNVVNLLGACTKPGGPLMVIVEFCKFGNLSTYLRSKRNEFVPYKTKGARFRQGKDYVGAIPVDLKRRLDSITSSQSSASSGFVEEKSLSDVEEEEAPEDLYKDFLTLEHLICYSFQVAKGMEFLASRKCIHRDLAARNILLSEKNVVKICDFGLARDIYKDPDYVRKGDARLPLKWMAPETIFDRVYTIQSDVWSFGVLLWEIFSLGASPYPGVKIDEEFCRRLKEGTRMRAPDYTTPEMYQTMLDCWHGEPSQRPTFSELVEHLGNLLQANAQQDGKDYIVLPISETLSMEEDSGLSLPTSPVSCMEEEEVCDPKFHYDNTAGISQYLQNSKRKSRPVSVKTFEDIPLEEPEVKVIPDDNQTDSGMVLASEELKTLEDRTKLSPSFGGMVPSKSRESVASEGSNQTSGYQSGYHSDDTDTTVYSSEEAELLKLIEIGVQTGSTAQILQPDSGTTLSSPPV

[1] = test system: phosphorylation level of Y1604 on ALK; assay: Western blot of ALK phosphorylation in H2228 cells; type: cell-based, human; details: 6 h, 3b 2 µM, 3c 4 µM
From the text: Figure 4. Effect of test compounds on H2228 cells. […] (A) Western blots of phosphorylated tyrosine residue 1640 on ALK as well as acetylated (Ac) α-tubulin and histone H3 with their corresponding total proteins for normalisation. GAPDH was used as a loading control. (B) Quantification of western blotting results using Image J. Error bars indicate ± S.D.E. *p-Value ≤ 0.05, **p-value ≤ 0.01, ***p-value ≤ 0.001.
(§1) Treated cells were washed three times with ice-cold phosphate-buffered saline and lysed in lysis buffer containing 100 mM Tris-HCl, 12 mM sodium deoxycholate, 12 mM sodium lauroylsarcosinate, and protease inhibitor cocktail (BioTools). Cells were heated in lysis buffer at 95 °C for 5 min and then the cell membrane was broken up by sonication (Bioruptor). Cellular debris and unbroken cells were removed by centrifugation (12,500 × g for 30 min, 4 °C). Protein concentration was determined using the bicinchoninic acid assay (Thermo). Cell extracts (20 μg) were resolved by 12% sodium dodecyl sulfate-polyacrylamide gel electrophoresis (SDS-PAGE), transferred to PVDF membranes, and probed separately with antibodies for Ac-histone H3, Ac-α-tubulin, histone H3, α-tubulin, HDAC1, HDAC6, HDAC8 and GAPDH. The antibodies of GAPDH, HDAC1, and HDAC8 were purchased from ABclonal and all other antibodies were from Cell Signalling Technology. Antibody signals were detected using an enhanced chemiluminescence system.

[2] = test system: protein expression level of HDAC1, HDAC6, or HDAC8; assay: Western blot of HDAC protein expression; type: cell-based, human; details: western blot after treatment (supplemental Figure S3)
Method: as §1
Figure S3. Western blots of HDAC1, HDAC6, and HDAC8 after drug treatment and vehicle control
activity was assessed by MTS assay, and the concentration of inhibitors was determined to be half of their
was tested five times, and the results were normalized to 1. (blank) […]

CYP2D6 = target: T4, CYP2D6 (Homo sapiens, UniProt P10635); assay: CYP450 inhibition assay; type: in vitro ADME; details: human recombinant enzyme
T4 construct: purchased Reaction Biology Corporation; host or cells: CYP cDNA baculovirus expression systems
T4 sequence (P10635 whole entry): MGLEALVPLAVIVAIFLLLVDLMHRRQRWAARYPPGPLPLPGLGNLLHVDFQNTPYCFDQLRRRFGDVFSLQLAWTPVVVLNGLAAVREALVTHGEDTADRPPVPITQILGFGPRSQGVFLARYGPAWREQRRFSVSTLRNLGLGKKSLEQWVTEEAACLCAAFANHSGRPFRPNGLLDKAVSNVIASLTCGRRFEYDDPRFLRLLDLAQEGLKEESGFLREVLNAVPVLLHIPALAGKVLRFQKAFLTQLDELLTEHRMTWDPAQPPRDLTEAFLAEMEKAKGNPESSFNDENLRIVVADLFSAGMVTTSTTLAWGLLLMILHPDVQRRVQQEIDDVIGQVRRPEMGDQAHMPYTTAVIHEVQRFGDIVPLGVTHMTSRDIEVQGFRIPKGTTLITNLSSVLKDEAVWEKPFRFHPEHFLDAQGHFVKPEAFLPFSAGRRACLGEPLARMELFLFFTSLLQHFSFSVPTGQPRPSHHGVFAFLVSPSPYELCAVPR

CC(C)NC(=O)C1CCC(n2c(=NC(=O)c3ccccc3)[nH]c3cc(C=CC(=O)NO)ccc32)CC1 [Compound 3b, (E)-N-(5-((E)-3-(Hydroxyamino)-3-oxoprop-1-en-1-yl)-1-((1S,4S)-4-(isopropylcarbamoyl)cyclohexyl)-1H-benzo[d]imidazol-2(3H)-ylidene)benzamide]
IC50 (HDAC6): 1030 nM | IC50 (HDAC11): 16600 nM | IC50 (MCF7): 550 ± 10 nM | IC50 (H2228): 440 ± 60 nM | IC50 (VEGFR2): > 10000 nM | phosphorylation level of Y1604 on ALK [1]: significantly decreased | protein expression level of HDAC1, HDAC6, or HDAC8 [2]: not perturbed | IC50 (CYP2D6): > 10000 nM
